Assay results: patent US7888357B2, “Anti-inflammatory and protein kinase inhibitor compositions and related methods for downregulation of detrimental cellular responses and inhibition of cell death” (Northwestern University, priority 2001, dated 2011)

What was measured:
CaMKII = molecular target: T1, CaMKII (Rattus norvegicus, UniProt P11275); assay: Reconstituted enzyme assay, CaMKII; format: biochemical; conditions: γ-[32P]-ATP, synthetic peptide substrate; mean ± SEM; read-out: IC50 CaMKII
T1 construct: purchased New England Biolabs
Description: (§1) [table] […] The rationale for using BV-2 cells in high throughput screening was the paucity of well-characterized human microglial cell lines, and the relevant activation responses and signaling pathways reflect those seen in human and rodent primary microglial cultures. Compounds were tested for their effects on NO accumulation in conditioned media of LPS-stimulated BV-2 cells by measurement of nitrite production by the Griess assay as a read-out for iNOS activity, as described previously. Stock solutions of compounds were prepared in dimethylsulfoxide (DMSO) or in water. When stock solutions were prepared in DMSO, control wells contained the same final concentration of DMSO as the compound-containing wells. […] Solutions of compounds for cell treatments were diluted to a 10× final concentration by dilution of stock solutions in αMEM media. […] Reconstituted enzyme assays were done as described s. The sources of protein kinases were: bovine heart PKA from Promega, rat brain PKC from Calbiochem, rat CaMKII from New England Biolabs, chicken gizzard MLCK prepared as described, and a p38 MAP kinase kit containing recombinant Xenopus p38-MAPK and its human substrate from Upstate Biotechnology. The catalytic domains of these protein kinases retain a high level of amino acid sequence identity across mammalian species, consistent with the lack of documented major differences across species for the in vitro catalytic activity of a given kinase.

rats = assay: Organ histology after high dose injections; format: in vivo, rat; conditions: after high dose injections into rats (data not shown)
protein kinase C (PKC) = assay: Reconstituted enzyme assay, PKC; format: biochemical, rat; conditions: γ-[32P]-ATP, synthetic peptide substrate; read-out: IC50 PKC
Description: as §1

protein kinase A (PKA) = molecular target: T2, protein kinase A (PKA) (Bos taurus, UniProt P00517); assay: Reconstituted enzyme assay, PKA; format: biochemical, bovine; conditions: γ-[32P]-ATP, synthetic peptide substrate
T2 construct: bovine heart PKA from Promega; purchased Promega; host or cells: bovine heart
Description: as §1, with “The catalytic domains of these protein kinases retain a high level of amino acid sequence identity across mammalian species, consistent with the lack of documented major differences across species for the in vitro catalytic activity of a given kinase.” left out

[1] = molecular target: T3, myosin light chain kinase (MLCK) (Gallus gallus, UniProt P11799); assay: Reconstituted enzyme assay, MLCK; format: biochemical, chicken; conditions: γ-[32P]-ATP, synthetic peptide substrate; mean ± SEM; read-out: IC50 MLCK
T3 construct: chicken gizzard MLCK prepared as described; from tissue; host or cells: chicken gizzard
Description: as §1

BV-2 microglial cells = assay: Cell-based screen for inhibition of LPS-stimulated NO release (Griess assay); set-up: species or system murine; conditions: LPS-stimulated BV-2 cells, 24 hr, nitrite in conditioned media
Description: FIG. 1. Cell-based screen for inhibition of LPS-stimulated NO release. […] Inhibition is expressed as percent control, where the control is the NO accumulation from cells stimulated with LPS alone.
The rationale for using BV-2 cells in high throughput screening was the paucity of well-characterized human microglial cell lines, and the relevant activation responses and signaling pathways reflect those seen in human and rodent primary microglial cultures. Compounds were tested for their effects on NO accumulation in conditioned media of LPS-stimulated BV-2 cells by measurement of nitrite production by the Griess assay as a read-out for iNOS activity, as described previously. Stock solutions of compounds were prepared in dimethylsulfoxide (DMSO) or in water. When stock solutions were prepared in DMSO, control wells contained the same final concentration of DMSO as the compound-containing wells. […] Solutions of compounds for cell treatments were diluted to a 10× final concentration by dilution of stock solutions in αMEM media. The commercially available drugs tested were: compound 5 (KN93 from Alexis); compound 6 (pyrrolidinedithiocarbamate or PDTC from Sigma), compound 7 (SB203580 from Alexis Corporation), compound 8 (PD98059 from Alexis Corporation), and compound 9 (UO126 from Cell Signaling). […] Respectively, Western blots of cell lysates were done with the following antibodies: monoclonal anti-iNOS (1:1000 dilution, Transduction Labs); polyclonal anti-rat IL-1β (1:1000 dilution, R&D Systems, Inc.); monoclonal anti-glial fibrillary acidic protein (GFAP) (1:[…] dilution, Sigma); polyclonal anti-rat alioE (1:15,000 dilution) prepared as described; polyclonal anti-COX-2 (1:500 dilution) and monoclonal anti-phosphoATF2 (1:1000 dilution) from Santa Cruz Biotechnology, polyclonal anti-phosphoCREB (1:1000 dilution), and polyclonal anti-phosphop38 MAPK (1:1000 dilution). Reconstituted enzyme assays were done as described s. The sources of protein kinases were: bovine heart PKA from Promega, rat brain PKC from Calbiochem, rat CaMKII from New England Biolabs, chicken gizzard MLCK prepared as described, and a p38 MAP kinase kit containing recombinant Xenopus p38-MAPK and its human substrate from Upstate Biotechnology. The catalytic domains of these protein kinases retain a high level of amino acid sequence identity across mammalian species, consistent with the lack of documented major differences across species for the in vitro catalytic activity of a given kinase.
FIG. 4. Cell-based screen for functional effects of synthetic compounds on LPS-stimulated NO release from BV-2 cells. BV-2 cells were incubated for 24 hr with LPS (500 ng/ml) in the presence of increasing concentrations of: A) MW01-070C; B) MW01-026Z; C) MW01-118Z; D) MW01-119Z; E) MW01-051Z; F) MW01-160Z; G) MW01-196A; H) MW01-024Z; I) SB203580; J) PDTC; K) U0126; L) PD98059. The nitrite levels in conditioned media were determined. Inhibition is expressed as percentage of control values, where the control is the nitrite level in cells stimulated with LPS alone.
Compounds were tested for their effects on NO production by LPS-stimulated BV-2 cells as previously described [Mirzoeva, S., Koppal, T., Petrova, T. V., Lukas, T. J., Watterson, D. M., and Van Eldik, L. J. (1999) Brain Res. 844, 126-134]. The levels of nitrite, a stable NO metabolite, in conditioned media were determined by the Griess assay as previously described [Hu, J., Castets, F., Guevara, J. L., and Van Eldik, L. J. (1996) J. Biol. Chem. 271, 2543-2547]. Stock solutions of compounds were prepared in DMSO or in water. When stock solutions were prepared in DMSO, control wells contained the same final concentration of DMSO as the compound-containing wells. Solutions of compounds for cell treatments were diluted to a 10× final concentration by dilution of stock solutions of drugs in αMEM media.

T3 sequence (P11799 935-1906): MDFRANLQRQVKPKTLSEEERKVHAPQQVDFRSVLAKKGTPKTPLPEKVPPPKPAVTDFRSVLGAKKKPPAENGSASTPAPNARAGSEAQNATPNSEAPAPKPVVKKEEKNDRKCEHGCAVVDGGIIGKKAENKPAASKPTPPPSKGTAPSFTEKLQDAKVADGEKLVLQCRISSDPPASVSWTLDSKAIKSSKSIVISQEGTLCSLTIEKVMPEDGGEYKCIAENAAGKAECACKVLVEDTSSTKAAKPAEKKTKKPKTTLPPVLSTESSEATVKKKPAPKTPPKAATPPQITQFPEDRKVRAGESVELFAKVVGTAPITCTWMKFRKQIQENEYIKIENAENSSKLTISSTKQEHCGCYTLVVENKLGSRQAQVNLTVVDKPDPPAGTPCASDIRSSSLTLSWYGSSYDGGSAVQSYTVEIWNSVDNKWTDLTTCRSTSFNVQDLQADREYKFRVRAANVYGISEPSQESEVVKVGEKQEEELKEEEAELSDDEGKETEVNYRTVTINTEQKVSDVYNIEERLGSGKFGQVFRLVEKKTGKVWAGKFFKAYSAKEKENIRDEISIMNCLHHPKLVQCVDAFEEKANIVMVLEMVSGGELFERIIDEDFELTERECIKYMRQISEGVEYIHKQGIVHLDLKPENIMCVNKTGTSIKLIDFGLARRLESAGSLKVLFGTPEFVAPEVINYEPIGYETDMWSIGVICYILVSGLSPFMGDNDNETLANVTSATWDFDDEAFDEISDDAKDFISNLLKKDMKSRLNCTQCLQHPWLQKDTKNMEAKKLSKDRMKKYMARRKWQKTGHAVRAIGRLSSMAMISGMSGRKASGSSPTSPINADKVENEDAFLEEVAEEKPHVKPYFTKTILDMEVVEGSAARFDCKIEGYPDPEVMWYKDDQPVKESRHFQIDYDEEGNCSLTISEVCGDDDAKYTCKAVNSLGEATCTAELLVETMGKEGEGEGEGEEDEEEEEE
T1 sequence (P11275 1-325 limits assumed): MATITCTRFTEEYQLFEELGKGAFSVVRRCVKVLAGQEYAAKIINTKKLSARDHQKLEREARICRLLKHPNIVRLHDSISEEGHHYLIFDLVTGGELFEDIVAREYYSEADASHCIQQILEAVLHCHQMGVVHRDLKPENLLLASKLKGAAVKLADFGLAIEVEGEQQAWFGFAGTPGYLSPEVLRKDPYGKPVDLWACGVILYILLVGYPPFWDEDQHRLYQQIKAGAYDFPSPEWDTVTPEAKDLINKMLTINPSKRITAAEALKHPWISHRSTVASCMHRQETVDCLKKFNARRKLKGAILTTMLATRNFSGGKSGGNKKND

IC50 (CaMKII): 9.7 ± 1.9 µM | IC50 (protein kinase C (PKC)): > 100 µM | IC50 (protein kinase A (PKA)): > 100 µM | IC50 [1]: > 100 µM
SMILES: N=c1cc2c(nn1CCCCCCCCCCC(=O)N1CCN(c3ncccn3)CC1)-c1ccccc1CC2 [MW01-070C]
liver, kidney or brain damage based on histology (rats): no major liver, kidney or brain damage | inhibition of NO accumulation by activated glia (BV-2 microglial cells): more effective | inhibition of NO accumulation by activated glia (BV-2 microglial cells; listed as 1): most active compound
